# Experimental data reported in patent publication US20160237059A1, “HETEROCYCLIC SUBSTITUTED TRIFLUOROMETHYL PYRIMIDINONES AND THEIR USE” (BAYER PHARMA AKTIENGESELLSCHAFT, priority 2013, published 2016).
# pIC50: −log10 of the molar value.
# Experiments:
# human CCR2 = target: T1, human CCR2 (Homo sapiens, UniProt P41597); assay: Functional Ca2+ release test (B-1); assay type: cell-based; details: Chem-1 cell line transfected with human CCR2; 50% inhibition of the MCP-1 effect, MCP-1 at EC50 (about 5 nM); in some cases means of several determinations
# T1 construct: host or cells: Chem-1 cell line
# T1 sequence (P41597 1-360 isoform P41597-2): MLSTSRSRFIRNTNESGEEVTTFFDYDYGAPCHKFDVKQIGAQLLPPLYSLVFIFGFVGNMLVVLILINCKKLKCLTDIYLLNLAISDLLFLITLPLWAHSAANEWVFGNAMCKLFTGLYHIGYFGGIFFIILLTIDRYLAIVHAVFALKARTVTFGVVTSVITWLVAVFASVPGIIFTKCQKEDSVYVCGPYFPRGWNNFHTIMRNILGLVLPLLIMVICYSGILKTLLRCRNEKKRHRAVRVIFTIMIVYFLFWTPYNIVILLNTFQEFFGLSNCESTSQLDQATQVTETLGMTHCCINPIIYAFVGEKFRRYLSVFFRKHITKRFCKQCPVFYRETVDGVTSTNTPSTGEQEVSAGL
# Method in brief: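 Inhibition of MCP-1-evoked Ca2+ release was measured over 120 s by fluorescence imaging in Fluo-4-loaded, human CCR2-transfected Chem-1 cells. Compounds, tested in 10-point 1:3.16 series, were added 10 min before agonist at its EC50 (typically about 5 nM). IC50 values were obtained by 4-parameter logistic fitting.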
# murine CCR2 = target: T2, murine CCR2 (Mus musculus, UniProt P51683); assay: Functional β-arrestin recruiting test with human MCP-1 (B-2a); assay type: cell-based; details: U2OS β-arrestin cell line transfected with murine CCR2; agonist human MCP-1 at EC50 (about 3 nM); in some cases means of several determinations
# T2 construct: host or cells: U2OS β-arrestin cell line
# Experimental: The antagonistic action of test substances on CCR2 was determined in a β-arrestin test. The PathHunter β-arrestin GPCR test system (DiscoveRx Corporation, Ltd.) is a cell-based functional method for detecting binding of β-arrestin to an activated receptor. The molecular basis is a […] complementation measured by the enzymatic conversion of a chemiluminescent substrate. The test cell used was a U2OS β-arrestin cell line transfected with murine CCR2 (93-0543C3, DiscoveRx Corporation, Ltd.).
# The test substances were dissolved in dimethyl sulphoxide (DMSO) at a concentration of 10 mM and serially diluted with DMSO in steps of 1:3.16 for a 10-point dose/activity analysis. According to the desired test concentrations, the substances were pre-diluted in Tyrode with 2 mM CaCl2 and 0.05% BSA.
# The cells, cultivated in MEM Eagle (supplemented with 10% FCS, 50 U/ml of penicillin, 50 μg/ml of streptomycin, 250 μg/ml of hygromycin and 500 μg/ml of geniticin), were sown at 2000 cells/25 μl in 384 well, μCLEAR/black cell culture plates from Greiner (#781092) and incubated at 37° C. for 24 h. The sowing medium consisted of Opti-MEM (supplemented with 1% FCS, 50 U/ml of penicillin and 50 μg/ml of streptomycin). The cells were pre-incubated for 10 min with 10 μl of the test substances diluted in buffer, and 10 μl of agonist solution [human MCP-1 (PeproTech, #300-04) in Tyrode with 0.05% BSA) were then added. The human MCP-1 was employed at the concentration which corresponds to the EC50 which had been determined in a preliminary test (usually about 3 nM). After 90 min of incubation at 37° C., the solution was removed, and recruitment of β-arrestin to CCR2 was detected with the aid of the PathHunter detection reagent (93-001, DiscoveRx Corporation, Ltd.) according to the instructions of the manufacturer. Luminescence was measured after an incubation time of 60 min using a proprietary luminescence imaging measuring instrument. The molar concentration of the test substance which caused 50% inhibition of the MCP-1 effect (IC50) was determined using a 4-parameter logistic function (Hill function).
# T2 sequence (P51683 whole entry): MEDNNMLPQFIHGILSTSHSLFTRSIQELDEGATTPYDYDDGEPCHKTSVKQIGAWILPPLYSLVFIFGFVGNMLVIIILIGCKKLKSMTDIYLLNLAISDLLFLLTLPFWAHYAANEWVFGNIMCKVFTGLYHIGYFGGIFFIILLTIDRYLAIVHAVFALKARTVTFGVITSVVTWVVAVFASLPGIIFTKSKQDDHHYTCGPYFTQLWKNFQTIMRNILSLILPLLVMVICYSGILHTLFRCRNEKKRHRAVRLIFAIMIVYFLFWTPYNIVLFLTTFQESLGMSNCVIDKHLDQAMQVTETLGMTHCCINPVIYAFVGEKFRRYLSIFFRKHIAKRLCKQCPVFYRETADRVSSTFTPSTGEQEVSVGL
Molecule,pIC50 (human CCR2),pIC50 (murine CCR2)
"O=c1[nH]c(-c2cc(O)ccn2)nc(C(F)(F)F)c1Oc1ccc(Cl)c(C(F)(F)F)c1 [Example 33, 5-[4-chloro-3-(trifluoromethyl)phenoxy]-2-(4-hydroxypyridin-2-yl)-6-(trifluoromethyl)pyrimidin-4(3H)-one]",7.34,6.19
"O=C(O)c1cc(O)n(-c2nc(C(F)(F)F)c(Cc3ccc(Cl)c(Cl)c3)c(=O)[nH]2)n1 [Example 88, 1-[5-(3,4-Dichlorobenzyl)-6-oxo-4-(trifluoromethyl)-1,6-dihydropyrimidin-2-yl]-5-hydroxy-H-pyrazole-3-carboxylic acid]",7.74,5.21
"Cn1ncc(-c2nc(C(F)(F)F)c(Oc3ccc(Cl)c(Cl)c3)c(=O)[nH]2)c1N [Example 68, 2-(5-amino-1-methyl-1H-pyrazol-4-yl)-5-(3,4-dichlorophenoxy)-6-(trifluoromethyl)pyrimidin-4(3H)-on]",7.57,6.51
"O=c1[nH]c(-c2cc[nH]n2)nc(C(F)(F)F)c1Cc1ccc(Cl)c(C(F)(F)F)c1 [Example 72, 5-[4-chloro-3-(trifluoromethyl)benzyl]-2-(1H-pyrazol-3-yl)-6-(trifluoromethyl)pyrimidin-4(3H)-one]",9.15,7.72
"O=c1[nH]c(Cc2ccncc2)nc(C(F)(F)F)c1Cc1ccc(Cl)c(Cl)c1 [Example 93, 5-(3,4-dichlorobenzyl)-2-(pyridin-4-ylmethyl)-6-(trifluoromethyl)pyrimidin-4(3H)-one]",7.08,6.43
Cc1cc(Nc2nc(C(F)(F)F)c(Oc3ccc(Cl)c(Cl)c3)c(=O)[nH]2)on1 [Example 109],7.23,6.32
"O=c1[nH]c(-c2ncc(C(F)(F)F)cc2Cl)nc(C(F)(F)F)c1Oc1ccc(Cl)c(Cl)c1 [Example 6, 2-[3-chloro-5-(trifluoromethyl)pyridin-2-yl]-5-(3,4-dichlorophenoxy)-6-(trifluoromethyl)pyrimidin-4(3H)-one]",8.32,6.82
"CC(C)c1nc(-c2nc(C(F)(F)F)c(Oc3ccc(Cl)c(Cl)c3)c(=O)[nH]2)no1 [Example 80, 5-(3,4-Dichlorophenoxy)-2-[5-(propan-2-yl)-1,2,4-oxadiazol-3-yl]-6-(trifluoromethyl)pyrimidin-4(3H)-one x N,N-diisopropylethylamine]",7.49,6.80
"O=c1[nH]c(-c2ccccn2)nc(C(F)(F)F)c1Cc1ccc(Cl)c(Cl)c1 [Example 1, 5-(3,4-Dichlorobenzyl)-2-(pyridin-2-yl)-6-(trifluoromethyl)pyrimidin-4(3H)-one]",8.46,6.96
"COc1cccc(Nc2nc(C(F)(F)F)c(Oc3ccc(Cl)c(Cl)c3)c(=O)[nH]2)n1 [Example 101, 5-(3,4-dichlorophenoxy)-2-[(6-methoxypyridin-2-yl)amino]-6-(trifluoromethyl)pyrimidin-4(3H)-one]",6.37,4.96
O=c1[nH]c(-c2ccc3ccccc3n2)nc(C(F)(F)F)c1Oc1ccc(Cl)c(Cl)c1 [Example 178],7.48,6.27
"CCOC(=O)c1nc(-c2nc(C(F)(F)F)c(Oc3ccc(Cl)c(Cl)c3)c(=O)[nH]2)no1 [Example 260, Ethyl 3-[5-(3,4-dichlorophenoxy)-6-oxo-4-(trifluoromethyl)-1,6-dihydropyrimidin-2-yl]-1,2,4-oxadiazole-5-carboxylate x N,N-diisopropylethylamine]",7.89,6.92
"O=c1[nH]c(-c2cc[nH]n2)nc(C(F)(F)F)c1Cc1ccc(Cl)c(Cl)c1 [Example 50, 5-(3,4-dichlorobenzyl)-2-(1H-pyrazol-3-yl)-6-(trifluoromethyl)pyrimidin-4(3H)-one]",9.70,8.33
"COc1ccc2nc(-c3nc(C(F)(F)F)c(Oc4ccc(Cl)c(Cl)c4)c(=O)[nH]3)ccc2c1 [Example 177, 5-(3,4-dichlorophenoxy)-2-(6-methoxyquinolin-2-yl)-6-(trifluoromethyl)pyrimidin-4(3H)-one]",7.29,5.82
"O=c1[nH]c(-c2cn[nH]c2)nc(C(F)(F)F)c1Oc1ccc(Cl)c(Cl)c1 [Example 66, 5-(3,4-dichlorophenoxy)-2-(1H-pyrazol-4-yl)-6-(trifluoromethyl)pyrimidin-4(3H)-one]",8.36,6.96
"5-(3,4-dichlorobenzyl-2-(2-methoxypyridin-3-yl)-6-(trifluoromethyl)pyrimidin-4(3H)-one [Example 41]",8.32,6.39
"O=c1[nH]c(Cn2cncn2)nc(C(F)(F)F)c1Cc1ccc(Cl)c(Cl)c1 [Example 173, 5-(3,4-dichlorobenzyl)-2-(1H-1,2,4-triazol-1-ylmethyl)-6-(trifluoromethyl)pyrimidin-4(3H)-one]",6.59,6.01
"Nc1oc(=O)sc1-c1nc(C(F)(F)F)c(Cc2ccc(Cl)c(Cl)c2)c(=O)[nH]1 [Example 46, 2-(5-Amino-2-oxo-1,3-oxathiol-4-yl)-5-(3,4-dichlorobenzyl)-6-(trifluoromethyl)pyrimidin-4(3H)-one]",7.23,6.64
"Cn1nccc1-c1nc(C(F)(F)F)c(Oc2ccc(Cl)c(Cl)c2)c(=O)[nH]1 [Example 56, 5-(3,4-dichlorophenoxy)-2-(1-methyl-1H-pyrazol-5-yl)-6-(trifluoromethyl)pyrimidin-4(3H)-one]",7.42,6.05
O=c1[nH]c(NC2CCOC2)nc(C(F)(F)F)c1Oc1ccc(Cl)c(Cl)c1 (stereo not drawn) [Example 245],6.80,5.85
"Cc1cc(-c2nc(C(F)(F)F)c(Cc3ccc(Cl)c(Cl)c3)c(=O)[nH]2)nn1C [Example 55, 5-(3,4-dichlorobenzyl)-2-(1,5-dimethyl-1H-pyrazol-3-yl)-6-(trifluoromethyl)pyrimidin-4(3H)-one]",8.36,6.96
"Cc1cccc(-c2nc(C(F)(F)F)c(Cc3ccc(Cl)c(Cl)c3)c(=O)[nH]2)n1 [Example 25, 5-(3,4-dichlorobenzyl)-2-(6-methylpyridin-2-yl)-6-(trifluoromethyl)pyrimidin-4(3H)-one]",7.48,6.10
"CC1(C)NC(c2nc(C(F)(F)F)c(Oc3ccc(Cl)c(C(F)(F)F)c3)c(=O)[nH]2)=NO1 [Example 87, 5-[4-Chloro-3-(trifluoromethyl)phenoxy]-2-(5,5-dimethyl-4,5-dihydro-1,2,4-oxadiazol-3-yl)-6-(trifluoromethyl)pyrimidin-4(3H)-one]",7.85,7.27
"O=c1[nH]c(-c2cccc(O)n2)nc(C(F)(F)F)c1Oc1ccc(Cl)c(C(F)(F)F)c1 [Example 30, 5-[4-chloro-3-(trifluoromethyl)phenoxy]-2-(6-hydroxypyridin-2-yl)-6-(trifluoromethyl)pyrimidin-4(3H)-one]",6.85,6.28
"O=c1[nH]c(N2CCCC2)nc(C(F)(F)F)c1Cc1ccc(Cl)c(Cl)c1 [Example 175, 5-(3,4-dichlorobenzyl)-2-(pyrrolidin-1-yl)-6-(trifluoromethyl)pyrimidin-4(3H)-one]",6.44,5.85
O=c1[nH]c(Nc2cn[nH]c2)nc(C(F)(F)F)c1Cc1ccc(Cl)c(C(F)(F)F)c1 [Example 105],7.39,6.42
Cc1ccc(-c2nc(C(F)(F)F)c(Cc3ccc(Cl)c(Cl)c3)c(=O)[nH]2)nc1 [Example 19],8.01,6.52
